This is an account of results in ChEMBL document CHEMBL5154835, “Design, synthesis and biological evaluation of sulfonamides inhibitors of XPO1 displaying activity against multiple myeloma cells” (Eur J Med Chem, 2022).

The test system of one data set is NAMALVA. In words: Antiproliferative activity against human NAMALVA cells assessed as inhibition of cell growth incubated for 4 hrs by CCK-8 assay. The data set is classed as functional, cell-based. A general note: Tetrazolium assays rely on reduction of a dye to a coloured formazan, in cell work by metabolically active cells.
The test system of data set [1] is MM1.S. As to the kind of experiment: Induction of apoptosis in human MM1.S cells assessed as assessed as late apoptotic cells at 10000 nM measured after 48 hrs by annexin V-FITC/PI staining based flow cytometry analysis (Rvb=2.06%). The data set is classed as functional. For orientation: In flow cytometry, cells or beads pass a laser one at a time.
In data set [2] the test system is MM1.S. In words: Induction of cell cycle arrest in human MM1.S cells assessed as accumulation at S phase at 1000 nM incubated for 48 hrs by propidium iodide staining based flow cytometric analysis (reference value: 21.8%). The data set is classed as functional.
Data set [3] in a line: Metabolic stability in rat plasma assessed as compound remaining measured upto 120 mins by LC/MS analysis. To be noted: read-out: Stability. The data set is classed as ADME, cell-free.
The subject of data set [4] is MM1.S. As to the kind of experiment: Induction of cell cycle arrest in human MM1.S cells assessed as accumulation at G1 phase at 5000 nM incubated for 48 hrs by propidium iodide staining based flow cytometric analysis (reference value: 59.8%). In kind it is functional.
A short description of data set [5]: Tmax in Sprague-Dawley rat at 1 mg/kg, iv measured upto 8 hrs by LC-MS/MS analysis. In kind it is ADME, organism-based. Particulars: in vivo.
Data set [6] is described as follows: Clearance in Sprague-Dawley rat at 10 mg/kg, IG measured upto 8 hrs by LC-MS/MS analysis. In kind it is ADME, organism-based. To be noted: in vivo, po.
In data set [7] the test system is MM1.S. As to the kind of experiment: Induction of apoptosis in human MM1.S cells assessed as assessed as necrotic cells at 10000 nM measured after 48 hrs by annexin V-FITC/PI staining based flow cytometry analysis (Rvb=7.60%). The data set is classed as functional.
For data set [8], the system named is MM1.S. As to the kind of experiment: Induction of cell cycle arrest in human MM1.S cells assessed as p53-dependent accumulation of cells in G2 phaseat 10000 nM incubated for 48 hrs by propidium iodide staining based flow cytometric analysis (reference value: 18.4%). In kind it is functional.
Data set [9] is described as follows: AUC (0 to t) in Sprague-Dawley rat at 10 mg/kg, IG measured upto 8 hrs by LC-MS/MS analysis. The data set is classed as ADME, organism-based. Further details: time < 8 hrs, dose 10 mg/kg, route ig. Particulars: in vivo, po.
Data set [10] has as its system MM1.S. As to the kind of experiment: Induction of apoptosis in human MM1.S cells assessed as assessed as necrotic cells at 1000 nM measured after 48 hrs by annexin V-FITC/PI staining based flow cytometry analysis (Rvb=7.60%). The data set is classed as functional.
The nature of data set [11]: AUC (0 to infinity) in Sprague-Dawley rat at 1 mg/kg, iv measured upto 8 hrs by LC-MS/MS analysis. In kind it is ADME, organism-based. Further details: dose 1 mg/kg, time < 8 hrs, route iv. To be noted: in vivo.
The nature of data set [12]: Tmax in Sprague-Dawley rat at 10 mg/kg, IG measured upto 8 hrs by LC-MS/MS analysis. To be noted: in vivo, po. In kind it is ADME, organism-based.

For the compound `CS(=O)(=O)Nc1ccc(/C(=C\n2cnc(-c3cc(C(F)(F)F)cc(C(F)(F)F)c3)n2)C(N)=O)cc1`, in the data set on NAMALVA, the IC50 stood at 77.7 nM. Besides, the Activity in the data set with MM1.S [1] is 37.33%; in the data set on MM1.S [2] it was 18.3%; with MM1.S [4], 52.6%; with MM1.S [7], 7.34%; in the data set with MM1.S [8], 36.4%; with MM1.S [10], 6.61%. Also, the remaining at 2 h in [3] was found to be 80%. Moreover, the values for the Tmax in data set [5] and in [12] were 4.8 min and 2.17 h, respectively. Also, the CL/F in data set [6] is 27.3 mL/min/kg. In addition, the AUC(0-t) at 8 h in data set [9] stood at 5770 ng·h/mL. The AUC(0-inf) in data set [11] was found to be 1790 ng·h/mL.

As a reminder, the IC50 is the concentration needed to halve the response being measured. The term Tmax denotes the time at which the peak concentration occurs. Broadly, the CL/F is the apparent clearance, not corrected for the fraction that reaches the circulation. A word on the AUC(0-t): it is the area under the concentration-time curve up to a stated or last time point. Low readings indicate low exposure, high ones high exposure. By AUC(0-inf) is commonly meant the area under the concentration-time curve extrapolated to infinity.
